“Also recorded” adds a separate entry of the source. Read-outs that look alike come from different tables or passages of the source.
Legend:
gamma secretase = conditions: cited from earlier work
[1] = test system: RML (Rocky Mountains Laboratories) strain of the mouse scrapie agent; format: in vivo, CD1 female mice; conditions: Log-Rank test
PrP^sc [2] = format: in vivo, CD1 female mice; conditions: ip infected mice; cerebellum, hippocampus and parietal cortex
PrP^sc [3] = format: in vivo, CD1 female mice; conditions: mice sacrificed at clinical end stage; brain
[4] = mouse, in vivo, po

## O=C(O)C1(c2ccc(-c3ccc(Cl)c(Cl)c3)c(F)c2)CC1 [CHF 5074]
Gamma secretase
  mode of action on gamma secretase: gamma secretase modulator
[1]; ic infected mice
  survival time, treated versus untreated: no difference; also recorded: no effect
[1]; ip infected mice
  survival time, treated versus untreated: significantly increases the survival; also recorded: significant difference; also recorded: significantly prolongs survival times
PrP^sc [2]
  PrP^sc deposits in brain areas (immunohistochemistry), treated compared to controls: significant lower PrP^sc deposits
PrP^sc [3]
  content of PrP^sc among the different groups (Western blot): without significant differences
[4]
  safety and tolerability of chronic administration: safe and well tolerate

Reference: US20120022163A1 (priority 2010, published 2012)
